Laboratory results taken from the supplement of paper PMC11451515.

Key:
Settings in all cases: 48 h
[1] = system: NOMO1; assay: cell viability relative to DMSO control; higher = less cytotoxic
Method in brief: (§1)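 Three leukemia lines were tested: NOMO1 and SEM at 500 cells/well and P12-Ichikawa at 1000 cells/well. Each was adapted for at least four passages in each medium and seeded in 5 μl in 1536-well plates, and library compounds in DMSO were pin-dosed from 47 μM to 0.79 nM in 11 threefold steps. After 48 h at 37°C, CellTiter-Glo One luminescence was read. Viability is a percentage relative to DMSO wells on each plate, with cell-free wells as background.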

[2] = system: P12-Ichikawa; assay: as above
Method in brief: as §1

[3] = system: SEM cells; assay: as above
Method in brief: as §1

[4] = system: NOMO1; assay: AUC of viability dose-response curve (% viability x log10 dose units); higher = less sensitive
Method in brief: (§2)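 Seeding of medium-adapted leukemia cells was at 500 or 1000 cells/well in 1536-well plates, followed by 48 h at 37°C with library compounds in DMSO at 11 threefold doses from 47 μM to 0.79 nM. CellTiter-Glo One luminescence was normalised per plate to DMSO and cell-free wells and fitted as a four-parameter log-logistic function of log10 dose. Area under the curve was integrated by trapezoidal rule, with curves exceeding full viability scaled and curves failing quality control removed.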

[5] = system: P12-Ichikawa; assay: as above
Method in brief: as §2

[6] = system: SEM cells; assay: as above
Method in brief: as §2

O=C([O-])[C@H](CC(=O)N1C[C@H]2CCCC[C@H]2C1)Cc1ccccc1
cell viability [%]
Settings | [1] | [2] | [3]
HPLM + 10% dialyzed FBS, 0.000781 µM | 116 | 107 | 79.8
HPLM + 10% dialyzed FBS, 0.00234 µM | 120 | 118 | 91.7
HPLM + 10% dialyzed FBS, 0.00702 µM | 135 | 120 | 88.2
HPLM + 10% dialyzed FBS, 0.0211 µM | 133 | 129 | 72.7
HPLM + 10% dialyzed FBS, 0.0632 µM | 138 | 123 | 107
HPLM + 10% dialyzed FBS, 0.19 µM | 123 | 125 | 109
HPLM + 10% dialyzed FBS, 0.569 µM | 128 | 125 | 103
HPLM + 10% dialyzed FBS, 1.71 µM | 145 | 119 | 106
HPLM + 10% dialyzed FBS, 5.12 µM | 134 | 131 | 119
HPLM + 10% dialyzed FBS, 15.4 µM | 156 | 130 | 125
HPLM + 10% dialyzed FBS, 46.1 µM | 122 | 134 | 121
RPMI 5 mM glucose + 10% FBS, 0.000781 µM | – | 114 | 93.8
RPMI 5 mM glucose + 10% FBS, 0.00234 µM | – | 129 | 110
RPMI 5 mM glucose + 10% FBS, 0.00702 µM | – | 122 | 105
RPMI 5 mM glucose + 10% FBS, 0.0211 µM | – | 129 | 87.7
RPMI 5 mM glucose + 10% FBS, 0.0632 µM | – | 134 | 102
RPMI 5 mM glucose + 10% FBS, 0.19 µM | – | 131 | 108
RPMI 5 mM glucose + 10% FBS, 0.569 µM | – | 131 | 106
RPMI 5 mM glucose + 10% FBS, 1.71 µM | – | 131 | 112
RPMI 5 mM glucose + 10% FBS, 5.12 µM | – | 137 | 117
RPMI 5 mM glucose + 10% FBS, 15.4 µM | – | 139 | 128
RPMI 5 mM glucose + 10% FBS, 46.1 µM | – | 142 | 119
RPMI 5 mM glucose + 10% dialyzed FBS, 0.000781 µM | – | 113 | 85.1
RPMI 5 mM glucose + 10% dialyzed FBS, 0.00234 µM | – | 122 | 103
RPMI 5 mM glucose + 10% dialyzed FBS, 0.00702 µM | – | 126 | 107
RPMI 5 mM glucose + 10% dialyzed FBS, 0.0211 µM | – | 134 | 65.5
RPMI 5 mM glucose + 10% dialyzed FBS, 0.0632 µM | – | 123 | 95.7
RPMI 5 mM glucose + 10% dialyzed FBS, 0.19 µM | – | 127 | 117
RPMI 5 mM glucose + 10% dialyzed FBS, 0.569 µM | – | 129 | 115
RPMI 5 mM glucose + 10% dialyzed FBS, 1.71 µM | – | 122 | 105
RPMI 5 mM glucose + 10% dialyzed FBS, 5.12 µM | – | 135 | 129
RPMI 5 mM glucose + 10% dialyzed FBS, 15.4 µM | – | 131 | 137
RPMI 5 mM glucose + 10% dialyzed FBS, 46.1 µM | – | 129 | 140

AUC of viability dose-response curve
Settings | [4] | [5] | [6]
HPLM + 10% dialyzed FBS | 465 | 445 | 395
RPMI 5 mM glucose + 10% FBS | 440 | 442 | 418
RPMI 5 mM glucose + 10% dialyzed FBS | 448 | 471 | 374

CC(C[N+](C)(C)C)OC(N)=O (centres undefined)
cell viability [%]
Settings | [1] | [2] | [3]
HPLM + 10% dialyzed FBS, 0.000781 µM | 128 | 109 | 107
HPLM + 10% dialyzed FBS, 0.00234 µM | 124 | 121 | 114
HPLM + 10% dialyzed FBS, 0.00702 µM | 121 | 116 | 83.5
HPLM + 10% dialyzed FBS, 0.0211 µM | 119 | 122 | 98.8
HPLM + 10% dialyzed FBS, 0.0632 µM | 131 | 114 | 96.1
HPLM + 10% dialyzed FBS, 0.19 µM | 128 | 113 | 106
HPLM + 10% dialyzed FBS, 0.569 µM | 116 | 120 | 104
HPLM + 10% dialyzed FBS, 1.71 µM | 117 | 118 | 116
HPLM + 10% dialyzed FBS, 5.12 µM | 119 | 111 | 106
HPLM + 10% dialyzed FBS, 15.4 µM | 139 | 110 | 110
HPLM + 10% dialyzed FBS, 46.1 µM | 103 | 102 | 97.6
RPMI 5 mM glucose + 10% FBS, 0.000781 µM | 115 | – | 105
RPMI 5 mM glucose + 10% FBS, 0.00234 µM | 109 | – | 105
RPMI 5 mM glucose + 10% FBS, 0.00702 µM | 119 | – | 87
RPMI 5 mM glucose + 10% FBS, 0.0211 µM | 106 | – | 128
RPMI 5 mM glucose + 10% FBS, 0.0632 µM | 118 | – | 117
RPMI 5 mM glucose + 10% FBS, 0.19 µM | 108 | – | 132
RPMI 5 mM glucose + 10% FBS, 0.569 µM | 108 | – | 120
RPMI 5 mM glucose + 10% FBS, 1.71 µM | 105 | – | 124
RPMI 5 mM glucose + 10% FBS, 5.12 µM | 100 | – | 113
RPMI 5 mM glucose + 10% FBS, 15.4 µM | 101 | – | 120
RPMI 5 mM glucose + 10% FBS, 46.1 µM | 97.5 | – | 109
RPMI 5 mM glucose + 10% dialyzed FBS, 0.000781 µM | – | 122 | 116
RPMI 5 mM glucose + 10% dialyzed FBS, 0.00234 µM | – | 119 | 123
RPMI 5 mM glucose + 10% dialyzed FBS, 0.00702 µM | – | 122 | 88.7
RPMI 5 mM glucose + 10% dialyzed FBS, 0.0211 µM | – | 125 | 114
RPMI 5 mM glucose + 10% dialyzed FBS, 0.0632 µM | – | 122 | 120
RPMI 5 mM glucose + 10% dialyzed FBS, 0.19 µM | – | 119 | 107
RPMI 5 mM glucose + 10% dialyzed FBS, 0.569 µM | – | 114 | 125
RPMI 5 mM glucose + 10% dialyzed FBS, 1.71 µM | – | 128 | 108
RPMI 5 mM glucose + 10% dialyzed FBS, 5.12 µM | – | 122 | 112
RPMI 5 mM glucose + 10% dialyzed FBS, 15.4 µM | – | 109 | 116
RPMI 5 mM glucose + 10% dialyzed FBS, 46.1 µM | – | 102 | 108

AUC of viability dose-response curve
Settings | [4] | [5] | [6]
HPLM + 10% dialyzed FBS | 462 | 469 | 462
RPMI 5 mM glucose + 10% FBS | 456 | 456 | 456
RPMI 5 mM glucose + 10% dialyzed FBS | 465 | 468 | 477

O=P1(N(CCCl)CCCl)NCCCO1 (centres undefined)
cell viability [%]
Settings | [1] | [2] | [3]
HPLM + 10% dialyzed FBS, 0.000781 µM | 134 | 112 | 113
HPLM + 10% dialyzed FBS, 0.00234 µM | 106 | 113 | 104
HPLM + 10% dialyzed FBS, 0.00702 µM | 108 | 115 | 96.5
HPLM + 10% dialyzed FBS, 0.0211 µM | 115 | 113 | 110
HPLM + 10% dialyzed FBS, 0.0632 µM | 101 | 106 | 110
HPLM + 10% dialyzed FBS, 0.19 µM | 112 | 109 | 114
HPLM + 10% dialyzed FBS, 0.569 µM | 122 | 101 | 92.8
HPLM + 10% dialyzed FBS, 1.71 µM | 120 | 106 | 111
HPLM + 10% dialyzed FBS, 5.12 µM | 97.6 | 98.1 | 84.8
HPLM + 10% dialyzed FBS, 15.4 µM | 91 | 16.5 | 29.5
HPLM + 10% dialyzed FBS, 46.1 µM | 75.7 | 6.1 | 17.9
RPMI 5 mM glucose + 10% FBS, 0.000781 µM | 108 | 112 | –
RPMI 5 mM glucose + 10% FBS, 0.00234 µM | 98.4 | 113 | –
RPMI 5 mM glucose + 10% FBS, 0.00702 µM | 110 | 109 | –
RPMI 5 mM glucose + 10% FBS, 0.0211 µM | 99.7 | 113 | –
RPMI 5 mM glucose + 10% FBS, 0.0632 µM | 102 | 108 | –
RPMI 5 mM glucose + 10% FBS, 0.19 µM | 103 | 113 | –
RPMI 5 mM glucose + 10% FBS, 0.569 µM | 97.8 | 112 | –
RPMI 5 mM glucose + 10% FBS, 1.71 µM | 87.3 | 102 | –
RPMI 5 mM glucose + 10% FBS, 5.12 µM | 91.4 | 101 | –
RPMI 5 mM glucose + 10% FBS, 15.4 µM | 50.5 | 51.8 | –
RPMI 5 mM glucose + 10% FBS, 46.1 µM | 47.5 | 8.07 | –
RPMI 5 mM glucose + 10% dialyzed FBS, 0.000781 µM | 85.1 | 115 | 96.6
RPMI 5 mM glucose + 10% dialyzed FBS, 0.00234 µM | 110 | 109 | 95.6
RPMI 5 mM glucose + 10% dialyzed FBS, 0.00702 µM | 99.7 | 106 | 98.6
RPMI 5 mM glucose + 10% dialyzed FBS, 0.0211 µM | 119 | 102 | 119
RPMI 5 mM glucose + 10% dialyzed FBS, 0.0632 µM | 119 | 107 | 99.7
RPMI 5 mM glucose + 10% dialyzed FBS, 0.19 µM | 112 | 117 | 102
RPMI 5 mM glucose + 10% dialyzed FBS, 0.569 µM | 103 | 108 | 109
RPMI 5 mM glucose + 10% dialyzed FBS, 1.71 µM | 110 | 101 | 84
RPMI 5 mM glucose + 10% dialyzed FBS, 5.12 µM | 84.9 | 101 | 80.5
RPMI 5 mM glucose + 10% dialyzed FBS, 15.4 µM | 54 | 90 | 20.2
RPMI 5 mM glucose + 10% dialyzed FBS, 46.1 µM | 50.7 | 17.3 | 11.4

AUC of viability dose-response curve
Settings | [4] | [5] | [6]
HPLM + 10% dialyzed FBS | 416 | 409 | 413
RPMI 5 mM glucose + 10% FBS | 436 | 424 | 405
RPMI 5 mM glucose + 10% dialyzed FBS | 430 | 448 | 406
